Laboratory results from patent US9695155B2, “Herbicidal substituted pyrimidinyloxy benzene compounds” (E. I. DU PONT DE NEMOURS AND COMPANY, priority 2013, dated 2017).

Assays:
soybean = test: Test C postemergence; format: in vivo, Glycine max; conditions: for Plant response rating (0 to 100), Soybean: postemergence; for Plant response rating, Soybean: Postemergence, scale 0 to 100 (0 no effect, 100 complete control)
Outline: (§1)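 Greenhouse herbicide screen. Pre: seeded loam/sand, sprayed at planting. Post: 1–4 leaf plants (2–18 cm) in peat-based mix. Formulation: solvent mixture + surfactant, non-phytotoxic. Readout: visual % control vs untreated, 13–15 d; dash = not tested.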

waterhemp = test: Test C postemergence; format: in vivo, Amaranthus rudis; conditions: for Plant response rating (0 to 100), Waterhemp: postemergence; for Plant response rating, Waterhemp: Postemergence, scale 0 to 100 (0 no effect, 100 complete control)
Outline: as §1

morningglory = test: Test C postemergence; format: in vivo, Ipomoea coccinea; conditions: for Plant response rating (0 to 100), Morningglory: postemergence; for Plant response rating, Morningglory: Postemergence, scale 0 to 100 (0 no effect, 100 complete control)
Outline: as §1

ragweed = test: Test C postemergence; format: in vivo, Ambrosia elatior; conditions: for Plant response rating (0 to 100), Ragweed: postemergence; for Plant response rating, Ragweed: Postemergence, scale 0 to 100 (0 no effect, 100 complete control)
Outline: as §1

corn = test: Test A postemergence; format: in vivo, Zea mays
Outline: (§2)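 Compounds in non-phytotoxic solvent with surfactant applied as soil spray preemergence, or postemergence to plants 2-10 cm at one- to two-leaf stage, in loam/sand. After approximately 10 days in greenhouse, injury rated visually versus untreated controls, 0 (no effect) to 100 (complete control).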

giant foxtail [1] = test: Test A postemergence; format: in vivo, Setaria faberii
Outline: as §2

wheat = test: Test A preemergence; format: in vivo, Triticum aestivum; conditions: for Wheat plant response rating: 0 to 100 scale, 0 no effect, 100 complete control, approx. 10 days
Outline: as §2

large (Lg) crabgrass = test: Test C postemergence; format: in vivo, Digitaria sanguinalis; conditions: for Plant response rating, Crabgrass, Large: Postemergence
Outline: as §1

lambsquarters = test: Test C postemergence; format: in vivo, Chenopodium album; conditions: for Plant response rating (0 to 100), Lambsquarters: postemergence; for Plant response rating, Lambsquarters: Postemergence, scale 0 to 100 (0 no effect, 100 complete control)
Outline: as §1

pigweed [2] = test: Test A postemergence; format: in vivo, Amaranthus retroflexus
Outline: as §2

pigweed [3] = test: Test C postemergence; format: in vivo, Amaranthus retroflexus; conditions: for Plant response rating (0 to 100), Pigweed: postemergence; for Plant response rating, Pigweed: Postemergence, scale 0 to 100 (0 no effect, 100 complete control)
Outline: as §1

giant foxtail [4] = test: Test C postemergence; format: in vivo, Setaria faberii; conditions: for Plant response rating, Foxtail, Giant: Postemergence
Outline: as §1

[5] = 1000 g ai/ha, 0 to 100 scale, 0 no effect, 100 complete control
[6] = 16 g ai/ha, postemergence, visual rating, scale 0 to 100 (0 no effect, 100 complete control), 13 to 15 days
[7] = 31 g ai/ha, scale 0 to 100 (0 no effect, 100 complete control), 13 to 15 days
[8] = 62 g ai/ha, scale 0 to 100 (0 no effect, 100 complete control)
[9] = 125 g ai/ha, 0 to 100 scale where 0 is no effect and 100 is complete control
[10] = 500 g ai/ha, 0 to 100 scale where 0 is no effect and 100 is complete control
[11] = 8 g ai/ha, 0 is no effect, 100 is complete control
[12] = 16 g ai/ha, 0 is no effect, 100 is complete control
[13] = 8 g ai/ha, postemergence, 0 is no effect, 100 is complete control
[14] = 16 g ai/ha, postemergence, 0 is no effect, 100 is complete control

Structure (SMILES): Clc1cnc(Oc2cccc(Br)c2-n2cc(Br)cn2)nc1 [Compound 65]
- Plant response rating (0 to 100), Soybean (soybean; 125 g ai/ha): 85
- Plant response rating, Soybean (soybean; 31 g ai/ha, 13 to 15 days): 40
- Plant response rating, Soybean (soybean; 62 g ai/ha): 60
- Plant response rating (0 to 100), Waterhemp (waterhemp; 125 g ai/ha): 90
- Plant response rating, Waterhemp (waterhemp; 31 g ai/ha, 13 to 15 days): 75
- Plant response rating, Waterhemp (waterhemp; 62 g ai/ha): 95
- Plant response rating (0 to 100), Morningglory (morningglory; 125 g ai/ha): 95
- Plant response rating, Morningglory (morningglory; 31 g ai/ha, 13 to 15 days): 30
- Plant response rating, Morningglory (morningglory; 62 g ai/ha): 65
- Plant response rating (0 to 100), Ragweed (ragweed; 125 g ai/ha): 35
- Plant response rating, Ragweed (ragweed; 31 g ai/ha, 13 to 15 days): 5
- Plant response rating, Ragweed (ragweed; 62 g ai/ha): 25
- Plant response rating, Corn (corn; [5]): 70
- Plant response rating, Foxtail, Giant (giant foxtail [1]; [5]): 100
- Wheat plant response rating (wheat; 1000 g ai/ha): 30
- Crabgrass, Large plant response rating (large (Lg) crabgrass; [6]): 5
- Plant response rating (0 to 100), Crabgrass, Large (large (Lg) crabgrass; 125 g ai/ha, postemergence): 5
- Plant response rating, Crabgrass, Large (large (Lg) crabgrass; [7]): 5
- Plant response rating, Crabgrass, Large (large (Lg) crabgrass; [8]): 5
- Plant response rating (0 to 100), Lambsquarters (lambsquarters; 125 g ai/ha): 90
- Plant response rating, Lambsquarters (lambsquarters; 31 g ai/ha, 13 to 15 days): 80
- Plant response rating, Lambsquarters (lambsquarters; 62 g ai/ha): 75
- Plant response rating, Pigweed (pigweed [2]; [5]): 100
- Plant response rating (0 to 100), Pigweed (pigweed [3]; 125 g ai/ha): 98
- Plant response rating, Pigweed (pigweed [3]; 31 g ai/ha, 13 to 15 days): 90
- Plant response rating, Pigweed (pigweed [3]; 62 g ai/ha): 95
- Foxtail, Giant plant response rating (giant foxtail [4]; [6]): 5
- Plant response rating (0 to 100), Foxtail, Giant (giant foxtail [4]; 125 g ai/ha, postemergence): 10
- Plant response rating, Foxtail, Giant (giant foxtail [4]; [7]): 10
- Plant response rating, Foxtail, Giant (giant foxtail [4]; [8]): 10

Structure (SMILES): N#Cc1cccc(Oc2ncc(Cl)cn2)c1-n1cnc(Br)c1 [Compound 74]
- Plant response rating (0 to 100), Soybean (soybean; 125 g ai/ha): 75
- Plant response rating (0 to 100), Soybean (soybean; 250 g ai/ha): 80
- Plant response rating, Soybean (soybean; 31 g ai/ha, 13 to 15 days): 40
- Plant response rating, Soybean (soybean; 62 g ai/ha): 65
- Plant response rating (0 to 100), Waterhemp (waterhemp; 125 g ai/ha): 60
- Plant response rating (0 to 100), Waterhemp (waterhemp; 250 g ai/ha): 80
- Plant response rating, Waterhemp (waterhemp; 31 g ai/ha, 13 to 15 days): 35
- Plant response rating, Waterhemp (waterhemp; 62 g ai/ha): 60
- Plant response rating (0 to 100), Morningglory (morningglory; 125 g ai/ha): 75
- Plant response rating (0 to 100), Morningglory (morningglory; 250 g ai/ha): 85
- Plant response rating, Morningglory (morningglory; 31 g ai/ha, 13 to 15 days): 60
- Plant response rating, Morningglory (morningglory; 62 g ai/ha): 75
- Plant response rating (0 to 100), Ragweed (ragweed; 125 g ai/ha): 40
- Plant response rating (0 to 100), Ragweed (ragweed; 250 g ai/ha): 60
- Plant response rating, Ragweed (ragweed; 31 g ai/ha, 13 to 15 days): 40
- Plant response rating, Ragweed (ragweed; 62 g ai/ha): 40
- Plant response rating, Corn (corn; [9]): 30
- Plant response rating, Corn (corn; 500 g ai/ha, 0 to 100 scale, 0 no effect, 100 complete control): 70
- Plant response rating, Foxtail, Giant (giant foxtail [1]; [9]): 80
- Plant response rating, Foxtail, Giant (giant foxtail [1]; [10]): 90
- Plant response rating, Wheat (wheat; [9]): 0
- Wheat plant response rating (wheat; 500 g ai/ha): 40
- Plant response rating (0 to 100), Crabgrass, Large (large (Lg) crabgrass; 125 g ai/ha, postemergence): 15
- Plant response rating (0 to 100), Crabgrass, Large (large (Lg) crabgrass; 250 g ai/ha, postemergence): 20
- Plant response rating, Crabgrass, Large (large (Lg) crabgrass; [7]): 5
- Plant response rating, Crabgrass, Large (large (Lg) crabgrass; [8]): 5
- Plant response rating (0 to 100), Lambsquarters (lambsquarters; 125 g ai/ha): 75
- Plant response rating (0 to 100), Lambsquarters (lambsquarters; 250 g ai/ha): 85
- Plant response rating, Lambsquarters (lambsquarters; 31 g ai/ha, 13 to 15 days): 40
- Plant response rating, Lambsquarters (lambsquarters; 62 g ai/ha): 75
- Plant response rating, Pigweed (pigweed [2]; [9]): 100
- Plant response rating, Pigweed (pigweed [2]; [10]): 100
- Plant response rating (0 to 100), Pigweed (pigweed [3]; 125 g ai/ha): 65
- Plant response rating (0 to 100), Pigweed (pigweed [3]; 250 g ai/ha): 80
- Plant response rating, Pigweed (pigweed [3]; 31 g ai/ha, 13 to 15 days): 40
- Plant response rating, Pigweed (pigweed [3]; 62 g ai/ha): 60
- Plant response rating (0 to 100), Foxtail, Giant (giant foxtail [4]; 125 g ai/ha, postemergence): 10
- Plant response rating (0 to 100), Foxtail, Giant (giant foxtail [4]; 250 g ai/ha, postemergence): 20
- Plant response rating, Foxtail, Giant (giant foxtail [4]; [7]): 5
- Plant response rating, Foxtail, Giant (giant foxtail [4]; [8]): 5

Structure (SMILES): CC(=NO)c1cn(-c2c(Br)cccc2Oc2ncc(Cl)cn2)nn1 [Compound 115]
- Plant response rating (0 to 100), Soybean (soybean; [11]): 5
- Plant response rating (0 to 100), Soybean (soybean; [12]): 10
- Plant response rating (0 to 100), Waterhemp (waterhemp; [11]): 5
- Plant response rating (0 to 100), Waterhemp (waterhemp; [12]): 30
- Plant response rating (0 to 100), Morningglory (morningglory; [11]): 0
- Plant response rating (0 to 100), Morningglory (morningglory; [12]): 40
- Plant response rating (0 to 100), Ragweed (ragweed; [11]): 5
- Plant response rating (0 to 100), Ragweed (ragweed; [12]): 5
- Plant response rating, Corn (corn; [5]): 90
- Plant response rating, Foxtail, Giant (giant foxtail [1]; [5]): 90
- Wheat plant response rating (wheat; 1000 g ai/ha): 40
- Plant response rating (0 to 100), Crabgrass, Large (large (Lg) crabgrass; [13]): 5
- Plant response rating (0 to 100), Crabgrass, Large (large (Lg) crabgrass; [14]): 5
- Plant response rating (0 to 100), Lambsquarters (lambsquarters; [11]): 10
- Plant response rating (0 to 100), Lambsquarters (lambsquarters; [12]): 10
- Plant response rating, Pigweed (pigweed [2]; [5]): 100
- Plant response rating (0 to 100), Pigweed (pigweed [3]; [11]): 15
- Plant response rating (0 to 100), Pigweed (pigweed [3]; [12]): 50
- Plant response rating (0 to 100), Foxtail, Giant (giant foxtail [4]; [13]): 5
- Plant response rating (0 to 100), Foxtail, Giant (giant foxtail [4]; [14]): 5
